In PMC6864537, “Novel Thiazolidin-4-ones as Potential Non-Nucleoside Inhibitors of HIV-1 Reverse Transcriptase” (Molecules, 2019):

Biological target: T1, HIV-1 Reverse Transcriptase (Human immunodeficiency virus type 1 group M subtype B, UniProt P03366)
T1 construct: Lys101, Val179 (p66 subunit) and Glu138 (p51 subunit); purchased Roche
Test: HIV-1 RT inhibitory action, colorimetric photometric immunoassay kit (Roche)
Type: biochemical
Conditions: for IC50: IC50 (μM), 45 min pre-incubation, 2 h at 37 °C
Description: For the evaluation of the HIV-1 Reverse Transcriptase activity, the colorimetric photometric immunoassay kit provided by Roche was used. A two hours incubation at 37 °C was performed, as previously described in our paper following a pre-incubation step in which reverse transcriptase was incubated in the presence of the potential inhibitor for 45 min at room temperature before the addition of the substrate. The total-activity was measured in the absence of inhibitors (compounds) with the addition of an equal volume of the solvent of the compounds to the reaction mixture. For the determination of enzyme activity, incubation in the absence of enzyme was used as blank. Different inhibitor concentrations were added for the calculation of IC50 values.

SMILES	inhibition at 4 µM [%]	IC50 [µM]
COc1ccc2nc(N3C(=O)CSC3c3ccc(Cl)cc3)sc2c1 (stereo not shown) [Compound 22, 3-(6-Methoxy-benzo[d]thiazol-2-yl)-2-(4-chlorophenyl)thiazolidin-4-one]	72	2.76
CCOc1ccc2nc(N3C(=O)CSC3c3ccc(Cl)cc3)sc2c1 (stereo not shown) [Compound 26, 3-(6-Ethoxy-benzo[d]thiazol-2-yl)-2-(4-chlorophenyl)thiazolidin-4-one]	73	2.48
CCOc1ccc2nc(N3C(=O)CSC3c3ccc(OC)cc3)sc2c1 (stereo not shown) [Compound 27, 3-(6-Ethoxy-benzo[d]thiazol-2-yl)-2-(4-methoxyphenyl)thiazolidin-4-one]	76	1.93
COc1cccc2sc(N3C(=O)CSC3c3ccc(F)cc3)nc12 (stereo not shown) [Compound 15, 3-(4-Methoxy-benzo[d]thiazol-2-yl)-2-(4-flurophenyl)thiazolidin-4-one]	69	2.08
CCOc1ccc2nc(N3C(=O)CSC3c3ccc(F)cc3)sc2c1 (stereo not shown) [Compound 24, 3-(6-Ethoxy-benzo[d]thiazol-2-yl)-2-(4-fluorophenyl)thiazolidin-4-one]	36	> 4
COc1ccc(C2SCC(=O)N2c2nc3ccc(F)cc3s2)cc1 (stereo not shown) [Compound 6, 3-(6-Fluoro-benzo[d]thiazol-2-yl)-2-(4-methoxyphenyl)thiazolidin-4-one]	35	> 4
COc1ccc(C2SCC(=O)N2c2nc3c(OC)cccc3s2)cc1 (stereo not shown) [Compound 18, 3-(4-Methoxy-benzo[d]thiazol-2-yl)-2-(4-methoxyphenyl)thiazolidin-4-one]	72	2.69
O=C1CSC(c2c(Cl)cccc2Cl)N1c1nc2ccc(OC(F)(F)F)cc2s1 (stereo not shown) [Compound 29, 3-(6-Trifluoromethoxy-benzo[d]thiazol-2-yl)-2-(2,6-dichlorophenyl) thiazolidin-4-one]	49	4.28
O=C1CSC(c2cccc(Cl)c2Cl)N1c1nc2ccc(OC(F)(F)F)cc2s1 (stereo not shown) [Compound 30, 3-(6-Trifluoromethoxy-benzo[d]thiazol-2-yl)-2-(2,3-dichlorophenyl) thiazolidin-4-one]	46	> 4
O=C1CSC(c2c(F)cccc2F)N1c1nc2cccc(Cl)c2s1 (stereo not shown) [Compound 1, 3-(7-Chloro-benzo[d]thiazol-2-yl)-2-(2,6-difluorophenyl)thiazolidin-4-one]	70	0.21
O=C1CSC(c2ccc(Cl)cc2)N1c1nc2c(Cl)cccc2s1 (stereo not shown) [Compound 12, 3-(4-Chloro-benzo[d]thiazol-2-yl)-2-(4-chlorophenyl)thiazolidin-4-one]	50	4
COc1cccc2sc(N3C(=O)CSC3c3ccc(Cl)cc3)nc12 (stereo not shown) [Compound 17, 3-(4-Methoxy-benzo[d]thiazol-2-yl)-2-(4-chlorophenyl)thiazolidin-4-one]	67	2.6
COc1ccc(C2SCC(=O)N2c2nc3c(Cl)cccc3s2)cc1 (stereo not shown) [Compound 13, 3-(4-Chloro-benzo[d]thiazol-2-yl)-2-(4-methoxyphenyl)thiazolidin-4-one]	65	1.99
CCOc1ccc2nc(N3C(=O)CSC3c3ccc(O)cc3)sc2c1 (stereo not shown) [Compound 28, 3-(6-Ethoxy-benzo[d]thiazol-2-yl)-2-(4-hydroxyphenyl)thiazolidin-4-one]	62	2
O=C1CSC(c2c(F)cccc2Cl)N1c1nc2cccc(Cl)c2s1 (stereo not shown) [Compound 2, 3-(7-Chloro-benzo[d]thiazol-2-yl)-2-(2-chloro-6-fluorophenyl)thiazolidin-4-one]	72	0.0047
COc1cccc2sc(N3C(=O)CSC3c3ccc([N+](=O)[O-])cc3)nc12 (stereo not shown) [Compound 16, 3-(4-Methoxy-benzo[d]thiazol-2-yl)-2-(4-nitrophenyl)thiazolidin-4-one]	68	2.2

SMILES	inhibition at 4 µM [%]	IC50 [µM]
COc1ccc2nc(N3C(=O)CSC3c3ccc([N+](=O)[O-])cc3)sc2c1 (stereo not shown) [Compound 21, 3-(6-Methoxy-benzo[d]thiazol-2-yl)-2-(4-nitrophenyl)thiazolidin-4-one]	50	4
O=C1CSC(c2ccc([N+](=O)[O-])cc2)N1c1nc2c(Cl)cccc2s1 (stereo not shown) [Compound 11, 3-(4-Chloro-benzo[d]thiazol-2-yl)-2-(4-nitrophenyl)thiazolidin-4-one]	40	> 4
O=C1CSC(c2ccc([N+](=O)[O-])cc2)N1c1nc2ccc(F)cc2s1 (stereo not shown) [Compound 4, 3-(6-Fluoro-benzo[d]thiazol-2-yl)-2-(4-nitrophenyl)thiazolidin-4-one]	54	3.8
O=C1CSC(c2ccc(O)cc2)N1c1nc2ccc(Cl)cc2s1 (stereo not shown) [Compound 9, 3-(6-Chloro-benzo[d]thiazol-2-yl)-2-(4-hydroxyphenyl)thiazolidin-4-one]	56	0.001
O=C1CSC(c2ccc(F)cc2)N1c1nc2c(Cl)cccc2s1 (stereo not shown) [Compound 10, 3-(4-Chloro-benzo[d]thiazol-2-yl)-2-(4-fluorophenyl)thiazolidin-4-one]	63	0.001
CCOc1ccc2nc(N3C(=O)CSC3c3ccc([N+](=O)[O-])cc3)sc2c1 (stereo not shown) [Compound 25, 3-(6-Ethoxy-benzo[d]thiazol-2-yl)-2-(4-nitrophenyl)thiazolidin-4-one]	44	> 4
O=C1CSC(c2ccc(F)cc2)N1c1nc2ccc(F)cc2s1 (stereo not shown) [Compound 3, 3-(6-Fluoro-benzo[d]thiazol-2-yl)-2-(4-fluorophenyl)thiazolidin-4-one]	72	0.15
O=C1CSC(c2ccc([N+](=O)[O-])cc2)N1c1nc2ccc(OC(F)(F)F)cc2s1 (stereo not shown) [Compound 31, 3-(6-Trifluoromethoxy-benzo[d]thiazol-2-yl)-2-(4-nitrophenyl)thiazolidin-4-one]	46	> 4
O=C1CSC(c2ccc(Cl)cc2)N1c1nc2ccc(F)cc2s1 (stereo not shown) [Compound 5, 3-(6-Fluoro-benzo[d]thiazol-2-yl)-2-(4-chlorophenyl)thiazolidin-4-one]	44	> 4
O=C1CSC(c2ccc(O)cc2)N1c1nc2ccc(F)cc2s1 (stereo not shown) [Compound 7, 3-(6-Fluoro-benzo[d]thiazol-2-yl)-2-(4-hydroxyphenyl)thiazolidin-4-one]	50	4
O=C1CSC(c2ccc(Cl)cc2)N1c1nc2ccc(OC(F)(F)F)cc2s1 (stereo not shown) [Compound 32, 3-(6-Trifluoromethoxy-benzo[d]thiazol-2-yl)-2-(4-chlorophenyl)thiazolidin-4-one]	46	> 4
COc1ccc(C2SCC(=O)N2c2nc3ccc(OC)cc3s2)cc1 (stereo not shown) [Compound 23, 3-(6-Methoxy-benzo[d]thiazol-2-yl)-2-(4-methoxyphenyl)thiazolidin-4-one]	73	2.39
COc1ccc2nc(N3C(=O)CSC3c3ccc(F)cc3)sc2c1 (stereo not shown) [Compound 20, 3-(6-Methoxy-benzo[d]thiazol-2-yl)-2-(4-fluorophenyl)thiazolidin-4-one]	55	1.51
O=C1CSC(c2ccc(F)cc2)N1c1nc2ccc(Cl)cc2s1 (stereo not shown) [Compound 8, 3-(6-Chloro-benzo[d]thiazol-2-yl)-2-(4-fluorophenyl)thiazolidin-4-one]	83	0.26
O=C1CSC(c2ccc(O)cc2)N1c1nc2c(Cl)cccc2s1 (stereo not shown) [Compound 14, 3-(4-Chloro-benzo[d]thiazol-2-yl)-2-(4-hydroxyphenyl)thiazolidin-4-one]	83	0.01
COc1cccc2sc(N3C(=O)CSC3c3ccc(O)cc3)nc12 (stereo not shown) [Compound 19, 3-(4-Methoxy-benzo[d]thiazol-2-yl)-2-(4-hydroxyphenyl)thiazolidin-4-one]	71	2.62
